Experimental data: patent US9695155B2, “Herbicidal substituted pyrimidinyloxy benzene compounds” (E. I. DU PONT DE NEMOURS AND COMPANY, priority 2013, dated 2017)

Assays:
Assay in all cases: Test F preemergence
Conditions in all cases: 21 days, scale 0 to 100
guineagrass = type: in vivo, Panicum maximum
Description: (§1) Seeds of plant species selected from bermudagrass (Cynodon dactylon), surinam grass (Brachiaria decumbens), large (Lg) crabgrass (Digitaria sanguinalis), crabgrass, naked (naked crabgrass, Digitaria nuda), foxtail, green (green foxtail, Setaria viridis), johnsongrass (Sorghum halepense), kochia (Kochia scoparia), morningglory (pitted morningglory, Ipomoea lacunosa), nutsedge, purple (purple nutsedge, Cyperus rotundus), ragweed (common ragweed, Ambrosia elatior), mustard, black (black mustard, Brassica nigra), guineagrass (Panicum maximum), dallisgrass (Paspalum dilatatum), barnyardgrass (Echinochloa crus-galli), sandbur (southern sandbur, Cenchrus echinatus), sowthistle (common sowthistle, Sonchus oleraceous), Italian ryegrass (Lolium multiflorum), signalgrass (broadleaf signalgrass, Brachiaria platyphylla), dayflower (Virginia (VA) dayflower, Commelina virginica), bluegrass (annual bluegrass, Poa annua), quackgrass (Elytrigia repens), mallow (common mallow, Malva sylvestris), buckwheat, wild (wild buckwheat, Polygonum convolvulus), leafy spurge (Euphorbia esula), chickweed (common chickweed, Stellaria media), wild poinsettia (Euphorbia heterophylla), and pigweed (Amaranthus retroflexus) were planted into a blend of loam soil and sand and treated preemergence with test chemicals formulated in a non-phytotoxic solvent mixture which included a surfactant.
(§2) Treated plants and controls were maintained in a greenhouse for 21 days, after which time all species were compared to controls and visually evaluated. Plant response ratings, summarized in Table F, are based on a scale of 0 to 100 where 0 is no effect and 100 is complete control. A dash (-) response means no test result.

dallisgrass = type: in vivo, Paspalum dilatatum
Description: as §1, §2

dayflower = type: in vivo, Commelina virginica
Description: as §1, §2

bluegrass = type: in vivo, Poa annua
Description: as §1, §2

mallow = type: in vivo, Malva sylvestris
Description: as §1, §2

With `N#Cc1cccc(Oc2ncc(Cl)cn2)c1-n1cc(C(F)(F)F)cn1` [Compound 58, 3-[(5-chloro-2-pyrimidinyl)oxy]-2-[4-(trifluoromethyl)-1H-pyrazol-1-yl]benzonitrile] the “Plant response rating, Guineagrass” value (guineagrass; 16 g ai/ha) was 100, the “Plant response rating, Guineagrass” value (guineagrass; 31 g ai/ha) was 100 and the “Plant response rating, Guineagrass” value (guineagrass; 62 g ai/ha) was 100. For the same molecule, the “Plant response rating, Guineagrass” value (guineagrass; 125 g ai/ha) was 100, the “Plant response rating, Guineagrass” value (guineagrass; 250 g ai/ha) was 100 and the “Plant response rating, Dallisgrass” value (dallisgrass; 16 g ai/ha) was 90. For the same molecule, the “Plant response rating, Dallisgrass” value (dallisgrass; 31 g ai/ha) was 100, the “Plant response rating, Dallisgrass” value (dallisgrass; 62 g ai/ha) was 100 and the “Plant response rating, Dallisgrass” value (dallisgrass; 125 g ai/ha) was 100. For the same molecule, the “Plant response rating, Dallisgrass” value (dallisgrass; 250 g ai/ha) was 100, the “Plant response rating, Dayflower, VA” value (dayflower; 16 g ai/ha) was 90 and the “Plant response rating, Dayflower, VA” value (dayflower; 31 g ai/ha) was 95. The “Plant response rating, Dayflower, VA” value (dayflower; 62 g ai/ha) was 100, the “Plant response rating, Dayflower, VA” value (dayflower; 125 g ai/ha) was 100 and the “Plant response rating, Dayflower, VA” value (dayflower; 250 g ai/ha) was 100. For the same molecule, the “Plant response rating, Bluegrass” value (bluegrass; 16 g ai/ha) was 50, the “Plant response rating, Bluegrass” value (bluegrass; 31 g ai/ha) was 80 and the “Plant response rating, Bluegrass” value (bluegrass; 62 g ai/ha) was 98. For the same molecule, the “Plant response rating, Bluegrass” value (bluegrass; 125 g ai/ha) was 98, the “Plant response rating, Bluegrass” value (bluegrass; 250 g ai/ha) was 100 and the “Plant response rating, Mallow” value (mallow; 16 g ai/ha) was 60. For the same molecule, the “Plant response rating, Mallow” value (mallow; 31 g ai/ha) was 100, the “Plant response rating, Mallow” value (mallow; 62 g ai/ha) was 98 and the “Plant response rating, Mallow” value (mallow; 125 g ai/ha) was 100. For the same molecule, the “Plant response rating, Mallow” value (mallow; 250 g ai/ha) was 100.
